Among the data in PMC3037362, “Small Molecule Inhibitors of Staphylococcus aureus RnpA Alter Cellular mRNA Turnover, Exhibit Antimicrobial Activity, and Attenuate Pathogenesis” (PLoS Pathogens, 2011) are IC50 values, retold here.

The structures appear in SMILES notation.

The target in one assay is T1, RNase III (Escherichia coli, UniProt P0A7Y0).
T1 construct: gene rnc
Briefly: in vitro ribonuclease activity of commercial enzyme (off-target counter-assay, data not shown). Format: biochemical.

The target of assay [1] is T2, RnpA (protein component of ribonuclease P) (Staphylococcus aureus, UniProt P0A0H5).
T2 construct: recombinant full-length predicted open reading frame, N-terminal hexahistidine tag
The assay can be described thus: RiboGreen fluorescence RNA degradation screen; agarose gel titration of spa mRNA degradation by purified RnpA. The assay is classed as biochemical. The source says:
RiboGreen fluorescence RNA degradation screen; agarose gel titration of spa mRNA degradation by purified RnpA on RnpA (protein component of ribonuclease P) | five of these molecules were bona-fide inhibitors of RnpA-mediated RNA degradation (Figure 3B). One of these compounds, RNPA1000

T2 sequence (P0A0H5 whole entry): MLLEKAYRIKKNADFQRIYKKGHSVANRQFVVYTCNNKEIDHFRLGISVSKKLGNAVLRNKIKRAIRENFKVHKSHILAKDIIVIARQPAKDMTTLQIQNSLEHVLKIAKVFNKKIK
T1 sequence (P0A7Y0 whole entry): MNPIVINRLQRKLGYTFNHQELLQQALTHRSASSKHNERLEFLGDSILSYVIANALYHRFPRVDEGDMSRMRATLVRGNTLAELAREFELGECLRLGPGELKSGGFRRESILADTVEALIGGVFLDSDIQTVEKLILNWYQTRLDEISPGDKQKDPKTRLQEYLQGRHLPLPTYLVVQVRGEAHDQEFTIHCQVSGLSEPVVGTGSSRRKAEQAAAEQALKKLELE

Take `Cc1cc(/C=C(/C#N)C(=O)Nc2cccc(Br)c2)c(C)n1-c1ccc(C(=O)O)cc1` [RNPA1000]: the IC50 at RNase III was in the range of 500 to 750 µM; in assay [1], 100 to 125 µM.

The IC50 is the concentration at which inhibition is half-maximal.
